Test system: Metabolism protein genes
Assay: DNA chip mRNA expression in yeast, metabolism protein genes (Table 7)
Assay type: cell-based, Saccharomyces cerevisiae S288C
Method in brief: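 Whole-genome yeast DNA chip hybridization (65° C., >12 h) of Cy-labeled cDNA from S288C cells exposed 2 h at 25° C. to a sub-lethal toxicant dose in YPD; value is intensity relative to chemical-free control.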

Oc1cc(Cl)c(Cl)cc1Cl [(6), 2,4,5-trichlorophenol]
The level of expressed mRNA in the presence of chemical substance/The level of expressed mRNA in the absence of chemical substance (yeast gene YKL035W): 1.2
level of expressed mRNA in the presence/in the absence of chemical substance (yeast gene YKL060C): 1.3
The level of expressed mRNA in the presence of chemical substance/The level of expressed mRNA in the absence of chemical substance (yeast gene YKL091C): 2.2
The level of expressed mRNA in the presence of chemical substance/The level of expressed mRNA in the absence of chemical substance (yeast gene YKL104C): 0.9
level of expressed mRNA in the presence/in the absence of chemical substance (yeast gene YKL148C): 0.5
The level of expressed mRNA in the presence of chemical substance/The level of expressed mRNA in the absence of chemical substance (yeast gene YKL152C): 1.6
level of expressed mRNA in the presence/in the absence of chemical substance (yeast gene YKL157W): 1.5
The level of expressed mRNA in the presence of chemical substance/The level of expressed mRNA in the absence of chemical substance (yeast gene YKL213C): 1.0
The level of expressed mRNA in the presence of chemical substance/The level of expressed mRNA in the absence of chemical substance (yeast gene YKL215C): 2.1
The level of expressed mRNA in the presence of chemical substance/The level of expressed mRNA in the absence of chemical substance (yeast gene YKL218C): 3.6
level of expressed mRNA in the presence/in the absence of chemical substance (yeast gene YKR034W): 0.9
The level of expressed mRNA in the presence of chemical substance/The level of expressed mRNA in the absence of chemical substance (yeast gene YKR039W): 2.8
The level of expressed mRNA in the presence of chemical substance/The level of expressed mRNA in the absence of chemical substance (yeast gene YLL058W): 1.4
level of expressed mRNA in the presence/in the absence of chemical substance (yeast gene YLR006C): 0.9
level of expressed mRNA in the presence/in the absence of chemical substance (yeast gene YLR044C): 1.5
level of expressed mRNA in the presence/in the absence of chemical substance (yeast gene YLR056W): 1.2
level of expressed mRNA in the presence/in the absence of chemical substance (yeast gene YLR058C): 0.9
level of expressed mRNA in the presence/in the absence of chemical substance (yeast gene YLR081W): 0.9
level of expressed mRNA in the presence/in the absence of chemical substance (yeast gene YLR089C): 1.5
The level of expressed mRNA in the presence of chemical substance/The level of expressed mRNA in the absence of chemical substance (yeast gene YLR142W): 3.1
The level of expressed mRNA in the presence of chemical substance/The level of expressed mRNA in the absence of chemical substance (yeast gene YLR180W): 1.2
The level of expressed mRNA in the presence of chemical substance/The level of expressed mRNA in the absence of chemical substance (yeast gene YLR273C): 1.2
level of expressed mRNA in the presence/in the absence of chemical substance (yeast gene YLR284C): 0.9
The level of expressed mRNA in the presence of chemical substance/The level of expressed mRNA in the absence of chemical substance (yeast gene YLR299W): 0.9
The level of expressed mRNA in the presence of chemical substance/The level of expressed mRNA in the absence of chemical substance (yeast gene YLR300W): 1.1
level of expressed mRNA in the presence/in the absence of chemical substance (yeast gene YLR304C): 1.9
The level of expressed mRNA in the presence of chemical substance/The level of expressed mRNA in the absence of chemical substance (yeast gene YLR307W): 1.2
The level of expressed mRNA in the presence of chemical substance/The level of expressed mRNA in the absence of chemical substance (yeast gene YLR348C): 1.9
level of expressed mRNA in the presence/in the absence of chemical substance (yeast gene YLR354C): 1.5
level of expressed mRNA in the presence/in the absence of chemical substance (yeast gene YLR372W): 0.5
level of expressed mRNA in the presence/in the absence of chemical substance (yeast gene YML022W): 0.8
The level of expressed mRNA in the presence of chemical substance/The level of expressed mRNA in the absence of chemical substance (yeast gene YML054C): 1.8
The level of expressed mRNA in the presence of chemical substance/The level of expressed mRNA in the absence of chemical substance (yeast gene YML070W): 2.2
The level of expressed mRNA in the presence of chemical substance/The level of expressed mRNA in the absence of chemical substance (yeast gene YML100W): 2.8
The level of expressed mRNA in the presence of chemical substance/The level of expressed mRNA in the absence of chemical substance (yeast gene YML110C): 2.6
The level of expressed mRNA in the presence of chemical substance/The level of expressed mRNA in the absence of chemical substance (yeast gene YMR008C): 1.7
level of expressed mRNA in the presence/in the absence of chemical substance (yeast gene YMR011W): 0.6
level of expressed mRNA in the presence/in the absence of chemical substance (yeast gene YMR015C): 1.3
The level of expressed mRNA in the presence of chemical substance/The level of expressed mRNA in the absence of chemical substance (yeast gene YMR020W): 1.6
level of expressed mRNA in the presence/in the absence of chemical substance (yeast gene YMR083W): 1.8
The level of expressed mRNA in the presence of chemical substance/The level of expressed mRNA in the absence of chemical substance (yeast gene YMR105C): 2.8
The level of expressed mRNA in the presence of chemical substance/The level of expressed mRNA in the absence of chemical substance (yeast gene YMR189W): 1.9
level of expressed mRNA in the presence/in the absence of chemical substance (yeast gene YMR205C): 1.2
The level of expressed mRNA in the presence of chemical substance/The level of expressed mRNA in the absence of chemical substance (yeast gene YMR250W): 4.5
level of expressed mRNA in the presence/in the absence of chemical substance (yeast gene YMR261C): 0.6
The level of expressed mRNA in the presence of chemical substance/The level of expressed mRNA in the absence of chemical substance (yeast gene YMR271C): 4.2
The level of expressed mRNA in the presence of chemical substance/The level of expressed mRNA in the absence of chemical substance (yeast gene YMR272C): 2.6
The level of expressed mRNA in the presence of chemical substance/The level of expressed mRNA in the absence of chemical substance (yeast gene YMR296C): 0.4
level of expressed mRNA in the presence/in the absence of chemical substance (yeast gene YMR323W): 0.4
The level of expressed mRNA in the presence of chemical substance/The level of expressed mRNA in the absence of chemical substance (yeast gene YNL012W): 1.7
level of expressed mRNA in the presence/in the absence of chemical substance (yeast gene YNL025C): 0.5
The level of expressed mRNA in the presence of chemical substance/The level of expressed mRNA in the absence of chemical substance (yeast gene YNL037C): 2.8
The level of expressed mRNA in the presence of chemical substance/The level of expressed mRNA in the absence of chemical substance (yeast gene YNL045W): 2.2
The level of expressed mRNA in the presence of chemical substance/The level of expressed mRNA in the absence of chemical substance (yeast gene YNL104C): 0.8
The level of expressed mRNA in the presence of chemical substance/The level of expressed mRNA in the absence of chemical substance (yeast gene YNL106C): 1.0
The level of expressed mRNA in the presence of chemical substance/The level of expressed mRNA in the absence of chemical substance (yeast gene YNL169C): 1.4
level of expressed mRNA in the presence/in the absence of chemical substance (yeast gene YNL192W): 0.6
The level of expressed mRNA in the presence of chemical substance/The level of expressed mRNA in the absence of chemical substance (yeast gene YNL231C): 1.8
The level of expressed mRNA in the presence of chemical substance/The level of expressed mRNA in the absence of chemical substance (yeast gene YNL322C): 1.1
The level of expressed mRNA in the presence of chemical substance/The level of expressed mRNA in the absence of chemical substance (yeast gene YNL331C): 1.8
The level of expressed mRNA in the presence of chemical substance/The level of expressed mRNA in the absence of chemical substance (yeast gene YNL332W): 1.1
The level of expressed mRNA in the presence of chemical substance/The level of expressed mRNA in the absence of chemical substance (yeast gene YNR019W): 1.3
The level of expressed mRNA in the presence of chemical substance/The level of expressed mRNA in the absence of chemical substance (yeast gene YNR033W): 1.6
The level of expressed mRNA in the presence of chemical substance/The level of expressed mRNA in the absence of chemical substance (yeast gene YNR059W): 0.8
The level of expressed mRNA in the presence of chemical substance/The level of expressed mRNA in the absence of chemical substance (yeast gene YOL058W): 0.8
level of expressed mRNA in the presence/in the absence of chemical substance (yeast gene YOL086C): 1.7
level of expressed mRNA in the presence/in the absence of chemical substance (yeast gene YOL108C): 0.9
level of expressed mRNA in the presence/in the absence of chemical substance (yeast gene YOL116W): 0.7
The level of expressed mRNA in the presence of chemical substance/The level of expressed mRNA in the absence of chemical substance (yeast gene YOL126C): 1.5
The level of expressed mRNA in the presence of chemical substance/The level of expressed mRNA in the absence of chemical substance (yeast gene YOL143C): 3.5
The level of expressed mRNA in the presence of chemical substance/The level of expressed mRNA in the absence of chemical substance (yeast gene YOL153C): 1.9
level of expressed mRNA in the presence/in the absence of chemical substance (yeast gene YOL156W): 1.2
The level of expressed mRNA in the presence of chemical substance/The level of expressed mRNA in the absence of chemical substance (yeast gene YOL165C): 1.7
level of expressed mRNA in the presence/in the absence of chemical substance (yeast gene YOR002W): 1.1
level of expressed mRNA in the presence/in the absence of chemical substance (yeast gene YOR085W): 0.6
The level of expressed mRNA in the presence of chemical substance/The level of expressed mRNA in the absence of chemical substance (yeast gene YOR099W): 0.9
level of expressed mRNA in the presence/in the absence of chemical substance (yeast gene YOR103C): 1.0
level of expressed mRNA in the presence/in the absence of chemical substance (yeast gene YOR108W): 1.6
level of expressed mRNA in the presence/in the absence of chemical substance (yeast gene YOR128C): 1.0
The level of expressed mRNA in the presence of chemical substance/The level of expressed mRNA in the absence of chemical substance (yeast gene YOR130C): 1.6
level of expressed mRNA in the presence/in the absence of chemical substance (yeast gene YOR142W): 1.6
level of expressed mRNA in the presence/in the absence of chemical substance (yeast gene YOR176W): 0.9
level of expressed mRNA in the presence/in the absence of chemical substance (yeast gene YOR178C): 2.7
level of expressed mRNA in the presence/in the absence of chemical substance (yeast gene YOR251C): 0.9
The level of expressed mRNA in the presence of chemical substance/The level of expressed mRNA in the absence of chemical substance (yeast gene YOR336W): 1.7
The level of expressed mRNA in the presence of chemical substance/The level of expressed mRNA in the absence of chemical substance (yeast gene YOR347C): 0.9
level of expressed mRNA in the presence/in the absence of chemical substance (yeast gene YOR348C): 0.7
The level of expressed mRNA in the presence of chemical substance/The level of expressed mRNA in the absence of chemical substance (yeast gene YPL017C): 1.5
level of expressed mRNA in the presence/in the absence of chemical substance (yeast gene YPL028W): 1.2
level of expressed mRNA in the presence/in the absence of chemical substance (yeast gene YPL057C): 0.6
level of expressed mRNA in the presence/in the absence of chemical substance (yeast gene YPL135W): 1.3
level of expressed mRNA in the presence/in the absence of chemical substance (yeast gene YPL148C): 0.6
level of expressed mRNA in the presence/in the absence of chemical substance (yeast gene YPR113W): 1.1
The level of expressed mRNA in the presence of chemical substance/The level of expressed mRNA in the absence of chemical substance (yeast gene YPR160W): 4.5
level of expressed mRNA in the presence/in the absence of chemical substance (yeast gene YPR165W): 1.8
The level of expressed mRNA in the presence of chemical substance/The level of expressed mRNA in the absence of chemical substance (yeast gene YPR167C): 2.6
level of expressed mRNA in the presence/in the absence of chemical substance (yeast gene YPR183W): 1.2

Source: US8192962B2, “Processes for detecting toxic substances” (Daikin Industries, Ltd., priority 2001, dated 2012)
